# From patent publication US20220089592A1, “IMIDAZO[1,2-A]PYRIDINYL DERIVATIVES AS IRAK4 INHIBITORS” (priority 2019, published 2022)
# Target: T1, IRAK4 (Homo sapiens, UniProt Q9NWZ3)
# T1 sequence (Q9NWZ3 1-460): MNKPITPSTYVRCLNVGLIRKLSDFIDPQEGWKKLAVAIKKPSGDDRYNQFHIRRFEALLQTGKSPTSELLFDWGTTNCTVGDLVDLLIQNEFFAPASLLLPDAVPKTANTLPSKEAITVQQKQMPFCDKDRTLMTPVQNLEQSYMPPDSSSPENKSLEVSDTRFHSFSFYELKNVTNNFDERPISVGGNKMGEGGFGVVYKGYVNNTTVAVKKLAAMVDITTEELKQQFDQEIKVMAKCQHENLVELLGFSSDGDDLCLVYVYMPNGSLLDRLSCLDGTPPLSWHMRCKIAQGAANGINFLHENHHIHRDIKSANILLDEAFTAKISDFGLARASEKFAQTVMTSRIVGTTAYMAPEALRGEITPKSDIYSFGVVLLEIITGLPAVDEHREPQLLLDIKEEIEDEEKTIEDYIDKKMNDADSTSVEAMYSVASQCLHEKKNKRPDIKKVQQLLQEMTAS
# Assay: 2-hour 1 mM ATP IRAK4 Biochemical assay (as above, but with 100 pM IRAK4 and 1 mM ATP)
# Conditions: IRAK4 MSD BIOCHEMICAL (1 mM ATP) IC50 (μM), 100 pM IRAK4, 2 hours
# Outline: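 MSD electrochemiluminescence read-out: biotinylated peptide product bound to streptavidin plates, probed with anti-P-Thr rabbit antibody and Sulfo-Tag goat anti-rabbit. Kinase reaction used 1 mM ATP and 100 pM IRAK4 over 2 hours before EDTA quench.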
row,SMILES,IC50 [µM]
1,"COc1nc(NC(=O)c2cccc(C(F)F)n2)cn2cc(C34COC(CF)(C3)C4)nc12 [Example 559, 6-(difluoromethyl)-N-(2-(1-(fluoromethyl)-2-oxabicyclo[2.1.1]hexan-4-yl)-8-methoxyimidazo[1,2-a]pyrazin-6-yl)picolinamide]",0.012
2,"COc1ccccc1C(=O)Nc1cn2cc(C3CCOCC3)nc2c(OC)n1 [Example 457, 2-methoxy-N-(8-methoxy-2-(tetrahydro-2H-pyran-4-yl)imidazo[1,2-a]pyrazin-6-yl)benzamide 2,2,2-trifluoroacetate]",0.096
3,"CC(C)Oc1cc2nc(C3CCOC3)cn2cc1NC(=O)c1cccc(C(F)F)n1 (stereo not drawn) [Example 530, 6-(difluoromethyl)-N-(7-isopropoxy-2-(tetrahydrofuran-3-yl)imidazo[1,2-a]pyridin-6-yl)picolinamide 2,2,2-trifluoroacetate]",0.045
4,"COc1nc(NC(=O)c2cccc(C(C)C)n2)cn2cc(C3CCOCC3)nc12 [Example 456, 6-isopropyl-N-(8-methoxy-2-(tetrahydro-2H-pyran-4-yl)imidazo[1,2-a]pyrazin-6-yl)picolinamide]",0.014
5,"COc1nc(NC(=O)c2cccc(C(F)F)n2)cn2cc(C3CC3)nc12 [Example 562, N-(2-cyclopropyl-8-methoxyimidazo[1,2-a]pyrazin-6-yl)-6-(difluoromethyl)picolinamide 2,2,2-trifluoroacetate]",0.053
6,"COc1nc(NC(=O)c2cccc3c2OCC3)cn2cc(C34COC(C)(C3)C4)nc12 [Example 445, N-(8-methoxy-2-(1-methyl-2-oxabicyclo[2.1.1]hexan-4-yl)imidazo[1,2-a]pyrazin-6-yl)-2,3-dihydrobenzofuran-7-carboxamide 2,2,2-trifluoroacetate]",0.012
7,"CC(C)Oc1c(NC(=O)c2ccnc3ccnn23)cn2cc(C34COC(C)(C3)C4)nc2c1F [Example 433, N-(8-fluoro-7-isopropoxy-2-(1-methyl-2-oxabicyclo[2.1.1]hexan-4-yl)imidazo[1,2-a]pyridin-6-yl)pyrazolo[1,5-a]pyrimidine-7-carboxamide]",0.013
8,"COc1ncccc1C(=O)Nc1cn2cc(C34COC(C)(C3)C4)nc2c(F)c1OC1CCC1 [Example 436, N-(7-cyclobutoxy-8-fluoro-2-(1-methyl-2-oxabicyclo[2.1.1]hexan-4-yl)imidazo[1,2-a]pyridin-6-yl)-2-methoxynicotinamide 2,2,2-trifluoroacetate]",0.029
9,"COc1cc(NC(=O)c2cccc(C(F)F)n2)cn2cc([C@]3(C)C[C@@H](OC)C3)nc12 [Example 271, 6-(difluoromethyl)-N-(8-methoxy-2-((1r*,3r*)-3-methoxy-1-methylcyclobutyl)imidazo[1,2-a]pyridin-6-yl)picolinamide]",0.016
10,"CCCOc1ncccc1C(=O)Nc1cn2cc(C3CCOCC3)nc2c(OC)n1 [Example 460, N-(8-methoxy-2-(tetrahydro-2H-pyran-4-yl)imidazo[1,2-a]pyrazin-6-yl)-2-propoxynicotinamide]",0.025
11,"CC12CC(c3cn4cc(NC(=O)c5coc(C(F)F)n5)nc(OC5CCC5)c4n3)(CO1)C2 [Example 485, N-(8-cyclobutoxy-2-(1-methyl-2-oxabicyclo[2.1.1]hexan-4-yl)imidazo[1,2-a]pyrazin-6-yl)-2-(difluoromethyl)oxazole-4-carboxamide 2,2,2-trifluoroacetate]",0.037
12,"CC12CC(c3cn4cc(NC(=O)c5coc(C6CC6)n5)nc(OC5CCC5)c4n3)(CO1)C2 [Example 340, N-(8-cyclobutoxy-2-(1-methyl-2-oxabicyclo[2.1.1]hexan-4-yl)imidazo[1,2-a]pyrazin-6-yl)-2-cyclopropyloxazole-4-carboxamide]",0.006
13,"CCO[C@H]1C[C@H](Oc2cc3nc(C4CCOCC4)cn3cc2NC(=O)c2cccc(C(F)F)n2)C1 [Example 190, 6-(difluoromethyl)-N-(7-((1R*,3R*)-3-ethoxycyclobutoxy)-2-(tetrahydro-2H-pyran-4-yl)imidazo[1,2-a]pyridin-6-yl)picolinamide]",0.001
14,"Cn1ccc(C(=O)Nc2cn3cc(C45COC(C)(C4)C5)nc3cc2C(F)F)n1 [Example 390, N-(7-(difluoromethyl)-2-(1-methyl-2-oxabicyclo[2.1.1]hexan-4-yl)imidazo[1,2-a]pyridin-6-yl)-1-methyl-1H-pyrazole-3-carboxamide 2,2,2-trifluoroacetate]",0.072
15,"COc1nc(NC(=O)c2cccc(C(F)F)n2)cn2cc(CCOC(F)(F)F)nc12 [Example 563, 6-(difluoromethyl)-N-(8-methoxy-2-(2-(trifluoromethoxy)ethyl)imidazo[1,2-a]pyrazin-6-yl)picolinamide 2,2,2-trifluoroacetate]",0.046
16,"CCCOc1nc(NC(=O)c2ccccc2OC)cn2cc(C34COC(C)(C3)C4)nc12 [Example 335, 2-methoxy-N-(2-(1-methyl-2-oxabicyclo[2.1.1]hexan-4-yl)-8-propoxyimidazo[1,2-a]pyrazin-6-yl)benzamide]",0.011

# Continued by falling IC50, values first:
row,IC50 [µM],SMILES
1,0.009,"CCOc1cc2nc(C3C4COCC43)cn2cc1NC(=O)c1coc(C(F)F)n1 (stereo not drawn) [Example 376, N-(2-(3-oxabicyclo[3.1.0]hexan-6-yl)-7-ethoxyimidazo[1,2-a]pyridin-6-yl)-2-(difluoromethyl)oxazole-4-carboxamide 2,2,2-trifluoroacetate]"
2,0.008,"Cc1cccc(C(=O)Nc2cn3cc(C45COC(C)(C4)C5)nc3cc2C(F)F)n1 [Example 392, N-(7-(difluoromethyl)-2-(1-methyl-2-oxabicyclo[2.1.1]hexan-4-yl)imidazo[1,2-a]pyridin-6-yl)-6-methylpicolinamide 2,2,2-trifluoroacetate]"
3,0.008,"COc1nc(NC(=O)c2cccc3c2OCC3)cn2cc(C34CCC(C)(C3)OC4)nc12 (stereo not drawn) [Example 469, N-(8-methoxy-2-(1-methyl-2-oxabicyclo[2.2.1]heptan-4-yl)imidazo[1,2-a]pyrazin-6-yl)-2,3-dihydrobenzofuran-7-carboxamide 2,2,2-trifluoroacetate]"
4,0.007,"COc1nc(NC(=O)c2cccc(C(F)F)n2)cn2cc(C34CCOC(C)(C3)C4)nc12 [Example 555, 6-(difluoromethyl)-N-(8-methoxy-2-(1-methyl-2-oxabicyclo[3.1.1]heptan-5-yl)imidazo[1,2-a]pyrazin-6-yl)picolinamide]"
5,0.006,"COc1ccccc1C(=O)Nc1cn2cc(C34CC(C#N)(C3)C4)nc2cc1OC(C)C [Example 311, N-(2-(3-cyanobicyclo[1.1.1]pentan-1-yl)-7-isopropoxyimidazo[1,2-a]pyridin-6-yl)-2-methoxybenzamide]"
6,0.006,"CC(C)Oc1nc2nc(C34COC(C)(C3)C4)cn2cc1NC(=O)c1ccn(C)n1 [Example 497, N-(7-isopropoxy-2-(1-methyl-2-oxabicyclo[2.1.1]hexan-4-yl)imidazo[1,2-a]pyrimidin-6-yl)-1-methyl-1H-pyrazole-3-carboxamide]"
7,0.004,"CC(C)Oc1c(NC(=O)c2cccc3ncnn23)cn2cc(C34COC(C)(C3)C4)nc2c1F [Example 434, N-(8-fluoro-7-isopropoxy-2-(1-methyl-2-oxabicyclo[2.1.1]hexan-4-yl)imidazo[1,2-a]pyridin-6-yl)-[1,2,4]triazolo[1,5-a]pyridine-5-carboxamide]"
8,0.003,"CC12CC(c3cn4cc(NC(=O)c5cccc(C(F)F)n5)c(C(F)F)cc4n3)(CO1)C2 [Example 393, 6-(difluoromethyl)-N-(7-(difluoromethyl)-2-(1-methyl-2-oxabicyclo[2.1.1]hexan-4-yl)imidazo[1,2-a]pyridin-6-yl)picolinamide 2,2,2-trifluoroacetate]"
9,0.002,"CC(C)Oc1nc2nc(C3C4COCC43)cn2cc1NC(=O)c1ccn(CC(F)F)n1 (stereo not drawn) [Example 503, N-(2-(3-oxabicyclo[3.1.0]hexan-6-yl)-7-isopropoxyimidazo[1,2-a]pyrimidin-6-yl)-1-(2,2-difluoroethyl)-1H-pyrazole-3-carboxamide]"
10,0.001,"CC(C)Oc1cc2nc(C3CCOCC3)cn2cc1NC(=O)c1coc(C2CCOCC2)n1 [Example 387, N-(7-isopropoxy-2-(tetrahydro-2H-pyran-4-yl)imidazo[1,2-a]pyridin-6-yl)-2-(tetrahydro-2H-pyran-4-yl)oxazole-4-carboxamide 2,2,2-trifluoroacetate]"
11,0.001,"Cc1nn(C)cc1-c1cn2cc(NC(=O)c3cccc(C(F)F)n3)c(OC(C)C)cc2n1 [Example 263, 6-(difluoromethyl)-N-(2-(1,3-dimethyl-1H-pyrazol-4-yl)-7-isopropoxyimidazo[1,2-a]pyridin-6-yl)picolinamide]"
12,0.001,"O=C(Nc1cn2cc(C3CCOCC3)nc2cc1OC(F)F)c1cccc(C(F)F)n1 [Example 394, N-(7-(difluoromethoxy)-2-(tetrahydro-2H-pyran-4-yl)imidazo[1,2-a]pyridin-6-yl)-6-(difluoromethyl)picolinamide]"
13,0.001,"O=C(Nc1cn2cc(C3CCOCC3)nc2cc1OCCF)c1cccc(C(F)F)n1 [Example 188, 6-(difluoromethyl)-N-(7-(2-fluoroethoxy)-2-(tetrahydro-2H-pyran-4-yl)imidazo[1,2-a]pyridin-6-yl)picolinamide]"
14,0.001,"CC(C)(O)c1cc2nc(C3CCOCC3)cn2cc1NC(=O)c1cccc(C(F)F)n1 [Example 292, 6-(difluoromethyl)-N-(7-(2-hydroxypropan-2-yl)-2-(tetrahydro-2H-pyran-4-yl)imidazo[1,2-a]pyridin-6-yl)picolinamide]"
